In ChEMBL document CHEMBL4118098, “Discovery of DS28120313 as a potent orally active hepcidin production inhibitor: Design and optimization of novel 4,6-disubstituted indazole derivatives” (Bioorg Med Chem Lett, 2017):
Blank lines part the entries; values can stand above or below the molecule they belong to.

What was measured:
[1] = biological target: Tyrosine-protein kinase receptor TYRO3 (Homo sapiens) (UniProt Q06418); experiment: Inhibition of TYRO3 (unknown origin) at 0.19 uM relative to control
[2] = biological target: Tyrosine-protein kinase SYK (Homo sapiens) (UniProt P43405); experiment: Inhibition of SYK (unknown origin) at 0.19 uM relative to control
[3] = biological target: AMPK alpha2/beta1/gamma1 (Homo sapiens) (UniProt P54646+P54619+Q9Y478); experiment: Inhibition of AMPK-alpha2/beta1/gamma1 (unknown origin) at 0.19 uM relative to control; format: protein-complex assay
[4] = Lipophilicity, log D of the compound; format: physicochemical; details: octanol/water
[5] = biological target: Casein kinase I isoform delta (Homo sapiens) (UniProt P48730); experiment: Inhibition of CK1-delta (unknown origin) at 0.164 uM relative to control
[6] = biological target: Mitogen-activated protein kinase 1 (Homo sapiens) (UniProt P28482); experiment: Inhibition of Erk2 (unknown origin) at 0.164 uM relative to control
[7] = biological target: RAC-beta serine/threonine-protein kinase (Homo sapiens) (UniProt P31751); experiment: Inhibition of AKT2 (unknown origin) at 0.164 uM relative to control
[8] = biological target: T1, Serine/threonine-protein kinase D1 (Homo sapiens) (UniProt Q15139); experiment: Inhibition of PKD1 (unknown origin) at 0.164 uM relative to control
T1 sequence (whole entry): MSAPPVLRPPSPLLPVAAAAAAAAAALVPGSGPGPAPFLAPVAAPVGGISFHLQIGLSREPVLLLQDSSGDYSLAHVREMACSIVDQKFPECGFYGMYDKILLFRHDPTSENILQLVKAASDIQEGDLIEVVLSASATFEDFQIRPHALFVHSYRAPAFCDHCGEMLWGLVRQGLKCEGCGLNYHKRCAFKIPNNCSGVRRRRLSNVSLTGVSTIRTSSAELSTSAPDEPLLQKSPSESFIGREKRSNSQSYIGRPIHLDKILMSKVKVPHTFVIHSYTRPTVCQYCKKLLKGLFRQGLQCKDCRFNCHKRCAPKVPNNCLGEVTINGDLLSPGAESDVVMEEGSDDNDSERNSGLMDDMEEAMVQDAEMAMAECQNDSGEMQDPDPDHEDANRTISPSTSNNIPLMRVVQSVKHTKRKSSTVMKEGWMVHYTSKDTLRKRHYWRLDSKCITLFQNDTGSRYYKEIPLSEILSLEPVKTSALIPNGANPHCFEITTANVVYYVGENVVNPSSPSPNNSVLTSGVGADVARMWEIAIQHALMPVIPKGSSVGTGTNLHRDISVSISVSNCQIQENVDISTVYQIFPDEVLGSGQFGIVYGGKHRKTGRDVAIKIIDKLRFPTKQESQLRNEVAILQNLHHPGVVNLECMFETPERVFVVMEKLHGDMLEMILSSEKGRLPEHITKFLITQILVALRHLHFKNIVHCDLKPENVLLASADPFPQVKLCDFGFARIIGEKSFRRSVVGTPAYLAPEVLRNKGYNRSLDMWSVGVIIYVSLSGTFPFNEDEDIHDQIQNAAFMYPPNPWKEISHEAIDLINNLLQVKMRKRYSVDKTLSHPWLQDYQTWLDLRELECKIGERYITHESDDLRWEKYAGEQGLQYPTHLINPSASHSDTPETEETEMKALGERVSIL

[9] = biological target: Tyrosine-protein kinase ABL2 (Homo sapiens) (UniProt P42684); experiment: Inhibition of Arg (unknown origin) at 0.164 uM relative to control
[10] = system: Epidermal growth factor receptor (Homo sapiens), P00533 [L858R,T790M]; experiment: Inhibition of EGFR T790M/L858R double mutant (unknown origin) at 0.164 uM relative to control
[11] = biological target: Ephrin type-B receptor 3 (Homo sapiens) (UniProt P54753); experiment: Inhibition of EPHB3 (unknown origin) at 0.164 uM relative to control
[12] = biological target: Misshapen-like kinase 1 (Homo sapiens) (UniProt Q8N4C8); experiment: Inhibition of MINK (unknown origin) at 0.164 uM relative to control
[13] = system: Tyrosine-protein kinase ABL1 (Homo sapiens), P00519 [E255K]; experiment: Inhibition of ABL1 E255K mutant (unknown origin) at 0.164 uM relative to control
[14] = biological target: Tyrosine-protein kinase Fes/Fps (Homo sapiens) (UniProt P07332); experiment: Inhibition of FES (unknown origin) at 0.164 uM relative to control
[15] = system: Platelet-derived growth factor receptor alpha (Homo sapiens), P16234 [D842V]; experiment: Inhibition of PDGFRA D842V mutant (unknown origin) at 0.164 uM relative to control
[16] = biological target: Casein kinase I isoform gamma-1 (Homo sapiens) (UniProt Q9HCP0); experiment: Inhibition of CK1-gamma1 (unknown origin) at 0.164 uM relative to control
[17] = biological target: Inhibitor of nuclear factor kappa-B kinase subunit epsilon (Homo sapiens) (UniProt Q14164); experiment: Inhibition of IKBKE (unknown origin) at 0.164 uM relative to control
[18] = biological target: Inhibitor of nuclear factor kappa-B kinase subunit beta (Homo sapiens) (UniProt O14920); experiment: Inhibition of IKK-beta (unknown origin) at 0.164 uM relative to control
[19] = biological target: T2, Testis-specific serine/threonine-protein kinase 1 (Homo sapiens) (UniProt Q9BXA7); experiment: Inhibition of TSSK1 (unknown origin) at 0.164 uM relative to control
T2 sequence (whole entry): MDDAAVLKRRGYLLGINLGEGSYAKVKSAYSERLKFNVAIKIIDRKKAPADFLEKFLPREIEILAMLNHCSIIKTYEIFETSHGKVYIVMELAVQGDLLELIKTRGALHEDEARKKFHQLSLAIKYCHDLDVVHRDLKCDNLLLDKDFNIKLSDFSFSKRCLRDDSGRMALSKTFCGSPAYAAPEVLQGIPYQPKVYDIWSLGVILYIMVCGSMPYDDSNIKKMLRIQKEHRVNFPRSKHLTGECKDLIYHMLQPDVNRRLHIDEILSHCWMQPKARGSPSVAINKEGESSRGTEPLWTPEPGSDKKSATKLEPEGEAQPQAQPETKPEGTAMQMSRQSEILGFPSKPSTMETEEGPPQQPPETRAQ

[20] = biological target: Dual specificity tyrosine-phosphorylation-regulated kinase 4 (Homo sapiens) (UniProt Q9NR20); experiment: Inhibition of DYRK4 (unknown origin) at 0.164 uM relative to control
[21] = biological target: Protein kinase C beta type (Homo sapiens) (UniProt P05771); experiment: Inhibition of PKC-beta2 (unknown origin) at 0.164 uM relative to control
[22] = biological target: Calcium/calmodulin-dependent protein kinase type IV (Homo sapiens) (UniProt Q16566); experiment: Inhibition of CAMK4 (unknown origin) at 0.45 uM relative to control
[23] = system: Mast/stem cell growth factor receptor Kit (Homo sapiens), P10721 [T670I]; experiment: Inhibition of KIT T670I mutant (unknown origin) at 0.45 uM relative to control

inhibition [1]: 10%
inhibition [2]: 4.7%
inhibition [3]: 13.7%
Compound: Cc1[nH]nc(C2CC2)c1-c1ccc2c(-c3ccc(N4CCN(C)CC4)nc3)n[nH]c2c1

logD [4]: 3.1
inhibition [5]: 4.7%
inhibition [6]: 9%
inhibition [7]: 1.3%
inhibition [8]: -3%
inhibition [9]: 0.7%
inhibition [10]: 1%
inhibition [11]: 0.7%
inhibition [12]: 7%
inhibition [13]: -2.3%
inhibition [14]: 11.7%
inhibition [15]: 23.7%
inhibition [16]: -2.7%
inhibition [17]: 0.3%
inhibition [18]: -3.7%
inhibition [19]: -4.3%
inhibition [20]: 2.7%
inhibition [21]: 5.7%
Compound: COC(=O)Nc1cc(-c2c(C3CC3)n[nH]c2C)cc2[nH]ncc12

inhibition [22]: 0%
inhibition [23]: -10%
Compound: Cc1n[nH]c(C)c1-c1ccc2c(NC(=O)c3ccc(N4CCN(C)CC4)cc3)n[nH]c2c1
